Values joined by “and” are separate entries in the source; they are usually repeats but may differ in a detail not shown here. Identical values can stand only once.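 Dose response: 5 concentrations. Exposure: 48 h. Format: 96-well plates. Endpoint: linear interpolation; highest concentration if not reached. Abbreviation: GI50, concentration required for 50% inhibition of growth. At the TGI there is no net growth.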
Experiments:
Assay in all cases: NCI anticancer screen, dose series, 48 h
[1] = test system: 786-0 renal
[2] = test system: EKVX NSCLC
[3] = test system: MDA-MB-231 breast
[4] = test system: SK-MEL-5 melanoma
[5] = test system: SNB-19 CNS
[6] = test system: NCI-H460 lung
[7] = test system: RPMI-8226 leukemia
[8] = test system: OVCAR-8 ovarian
[9] = test system: IGROV1 ovarian
[10] = test system: OVCAR-4 ovarian

Row | Structure (SMILES) | GI50 [1] | TGI [1] | GI50 [2] | TGI [2] | GI50 [3] | TGI [3] | GI50 [4] | TGI [4] | GI50 [5] | TGI [5] [µM] | GI50 [6] | TGI [6] | GI50 [7] | TGI [7] | GI50 [8] | TGI [8] | GI50 [9] | TGI [9] | GI50 [10] | TGI [10]
1 | COc1cc(/C=C/c2cc(/C=C/c3ccc(O)c(OC)c3)n(C(=O)Nc3ccc(Cl)cc3)n2)ccc1O | 0.515 µM | 1.85 µM | 1.61 µM | 9.62 µM | 0.975 µM | 10.7 µM | 0.306 µM | 1.25 µM | 0.664 µM | 11.1 | 0.327 µM | 1.85 µM | 0.376 µM | 2.48 µM | 0.641 µM | 3.31 µM | 0.661 µM | 4.66 µM | 0.803 µM | 5.73 µM
2 | CN1CCN(CCOc2cc(OC3CCOCC3)c3c(Nc4c(Cl)ccc5c4OCO5)ncnc3c2)CC1 | 4.47 µM and > 10 µM | 24.1 µM and > 10 µM | 1.04 µM and 0.732 µM | 57.6 µM and > 10 µM | 6.95 µM and 8.97 µM | 24.1 µM and > 10 µM | 11.4 µM and > 10 µM | 23.6 µM and > 10 µM | 12.1 µM and > 10 µM | > 100 | 18.6 µM and > 10 µM | 65.6 µM and > 10 µM | 19.4 µM and > 10 µM | 63.4 µM and > 10 µM | 8.55 µM and 8.64 µM | 34 µM and > 10 µM | 0.244 µM and 0.204 µM | 2.72 µM and 3.05 µM | 13.5 µM and > 10 µM | 34.7 µM and > 10 µM
3 | CCS(=O)(=O)c1ccc(OC)c(Nc2ncc(-c3ccccc3Cl)o2)c1 | > 17.4 µM | > 25 µM | > 21.3 µM | > 25 µM | 11.4 µM | > 25 µM | 7.4 µM | > 19.4 µM | > 21.9 µM | > 25 | > 17.7 µM | > 25 µM | 13.4 µM | > 25 µM | 9.9 µM | > 25 µM | 14.4 µM | > 25 µM | 13 µM | > 25 µM
4 | COc1cccc(C2C3=C(COC3=O)N(CCO)c3cc4c(cc32)OCO4)c1 (stereo not drawn) | 0.37 µM | > 50 µM | 1.03 µM | > 50 µM | 1.28 µM | 45.8 µM | 0.177 µM | > 50 µM | – | > 10.6 | 0.189 µM | – | 0.706 µM | > 50 µM | 1.19 µM | > 50 µM | 0.154 µM | 1.64 µM | 2.32 µM | > 50 µM
5 | COc1cc(C2C3=C(COC3=O)N(CCO)c3cc4c(cc32)OCO4)cc(OC)c1O (stereo not drawn) | 2.02 µM | > 50 µM | 4.36 µM | > 50 µM | 6.07 µM | 46.2 µM | 0.832 µM | 3.42 µM | 2.27 µM | > 18.8 | 1.69 µM | > 15.9 µM | 1.57 µM | > 50 µM | 3.17 µM | > 50 µM | 1.47 µM | 6.08 µM | 2.99 µM | > 50 µM
6 | Cc1ccc(NCCN(C)C)c2c(=O)c3ccccc3sc12 | 1.58 µM | 3.54 µM | 2.96 µM | 9.93 µM | 1.69 µM | 3.73 µM | 1.49 µM | 2.83 µM | 2.24 µM | 6.63 | 1.41 µM | 3.01 µM | 1.67 µM | 4.21 µM | 3.16 µM | 12.4 µM | 1.5 µM | 5.05 µM | 2.67 µM | 8.76 µM

Source: PubChem BioAssay (NCI)
